Earlier results as cited in US6511683B1, “Enchinacea supplement and method of manufacture” (Factors R & D Technologies Ltd., priority 1999, dated 2003).

Assays:
granulocytes = conditions: Awang et al.
immune system = conditions: Awang et al.

For `O=C(/C=C/c1ccc(O)c(O)c1)O[C@@H](C(=O)O)[C@@H](OC(=O)/C=C/c1ccc(O)c(O)c1)C(=O)O` [cichoric acid, 2,3-o-di-caffeoyl-tartaric acid], the phagocytosis in granulocytes (granulocytes) is given as “increase” and the “concentration that may stimulate the immune system” value (immune system) is given as at least 0.01 ppm.
